In ChEMBL document CHEMBL1145362, “Structure-activity relationships of SERMs optimized for uterine antagonism and ovarian safety” (Bioorg Med Chem Lett, 2007):

How the values were obtained:
Ishikawa [1] = test: Inhibition of estrogen stimulation in human Ishikawa cells by alkaline phosphatase quantitation; assay type: functional, cell-based; details: for IC50: Homo sapiens, Ishikawa
Estrogen receptor beta = Estrogen receptor beta (Homo sapiens, UniProt Q92731); test: Displacement of [3H]estradiol from human recombinant ERbeta
Ishikawa [2] = test: Increase in estrogen stimulation in human Ishikawa cells by alkaline phosphatase quantitation at 1 uM relative to control; assay type: functional
Rattus norvegicus [3] = test: Inhibition of estradiol-induced increase in uterine wet weight in orally dosed Sprague-Dawley rat after 3 days; assay type: functional; details: po, 72 h
[4] = Drug level in Sprague-Dawley rat brain at 10 mg/kg, po after 6 hrs; assay type: ADME, organism-based; design: dose 10 mg/kg, route oral; details: read-out: Drug uptake
[5] = Drug level in Sprague-Dawley rat plasma at 10 mg/kg, po after 6 hrs; assay type: ADME, organism-based; design: dose 10 mg/kg, route oral; details: read-out: Drug uptake
[6] = Ratio of log of drug level in brain to blood in Sprague-Dawley rat; assay type: ADME, tissue-based; details: read-out: logBB (converted)
Rattus norvegicus [7] = test: Inhibition of estrogen stimulation in Sprague-Dawley rat at 10 mg/kg; assay type: functional
Estrogen receptor = target: T1, Estrogen receptor (Homo sapiens, UniProt P03372)
T1 sequence (P03372 whole entry): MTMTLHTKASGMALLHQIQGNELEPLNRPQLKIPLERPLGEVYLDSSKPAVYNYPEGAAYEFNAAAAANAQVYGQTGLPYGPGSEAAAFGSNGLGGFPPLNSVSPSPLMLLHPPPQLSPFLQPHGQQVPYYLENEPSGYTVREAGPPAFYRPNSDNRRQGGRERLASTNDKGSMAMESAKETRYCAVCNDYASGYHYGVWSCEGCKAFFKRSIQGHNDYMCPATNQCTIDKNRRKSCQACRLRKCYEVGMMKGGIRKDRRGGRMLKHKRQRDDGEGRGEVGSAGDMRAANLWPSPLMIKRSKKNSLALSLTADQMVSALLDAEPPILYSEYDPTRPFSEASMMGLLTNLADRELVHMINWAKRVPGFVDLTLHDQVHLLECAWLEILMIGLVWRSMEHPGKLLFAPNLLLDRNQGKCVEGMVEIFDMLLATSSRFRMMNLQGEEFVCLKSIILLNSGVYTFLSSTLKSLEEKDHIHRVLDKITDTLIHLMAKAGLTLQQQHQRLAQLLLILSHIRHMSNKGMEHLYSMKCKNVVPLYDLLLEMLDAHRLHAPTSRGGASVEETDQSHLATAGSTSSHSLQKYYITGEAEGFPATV
Description: Displacement of [3H]estradiol from human recombinant ERalpha

Rattus norvegicus [8] = test: Increase in uterine wet weight in Sprague-Dawley rat at 0.1 mg/kg; assay type: functional

Chain of Estrogen receptor beta (Q92731 whole entry): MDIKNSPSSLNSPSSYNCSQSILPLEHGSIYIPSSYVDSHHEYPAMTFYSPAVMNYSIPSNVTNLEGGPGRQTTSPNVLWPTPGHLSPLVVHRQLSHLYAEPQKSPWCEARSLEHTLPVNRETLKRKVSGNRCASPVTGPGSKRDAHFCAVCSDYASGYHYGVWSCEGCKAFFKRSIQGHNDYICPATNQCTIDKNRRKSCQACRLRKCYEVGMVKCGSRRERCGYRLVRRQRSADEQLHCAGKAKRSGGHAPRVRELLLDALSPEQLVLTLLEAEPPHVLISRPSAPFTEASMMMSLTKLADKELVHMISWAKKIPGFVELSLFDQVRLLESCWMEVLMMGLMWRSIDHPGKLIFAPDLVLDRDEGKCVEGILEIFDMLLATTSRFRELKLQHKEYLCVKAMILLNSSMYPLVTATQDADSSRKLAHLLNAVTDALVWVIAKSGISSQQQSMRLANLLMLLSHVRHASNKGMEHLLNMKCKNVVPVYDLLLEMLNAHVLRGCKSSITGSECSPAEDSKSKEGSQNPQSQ

Row | Structure (SMILES) | Efficacy (Ishikawa [1]) [%] | IC50 (Ishikawa [1]) [nM] | Ki (Estrogen receptor beta) [nM] | Efficacy (Ishikawa [2]) [%] | ED50 (Rattus norvegicus [3]) [mg/kg] | concentration at 6 h [4] [ng/g] | concentration at 6 h [5] [ng/mL] | Kp [6] | ED50 (Rattus norvegicus [7]) [mg/kg] | inhibition in vivo at 10 mg/kg (Rattus norvegicus [7]) [%] | Ki (Estrogen receptor) [nM] | Fold change (Rattus norvegicus [8])
1 | CN(C)S(=O)(=O)c1ccc(-c2ccc3cc(O)ccc3c2Oc2ccc(OCCN3CCCCC3)cc2)cc1 | 99 | 2.8 | 1.69 | 27 | 0.44 | 46 | 108 | 0.427 | < 1 | 83 | 0.4 | 
2 | CS(=O)(=O)c1ccc(-c2ccc3cc(O)ccc3c2Oc2ccc(OCCN3CCCCC3)cc2)cc1 |  |  |  |  |  | 103 | 660 | 0.155 |  |  |  | 
3 | CCS(=O)(=O)c1ccc(-c2ccc3cc(O)ccc3c2Oc2ccc(OCCN3CCCCC3)cc2)cc1 | 95 | 6.1 | 4.19 | 19 | 0.14 | 43 | 357 | 0.12 | < 1 | 83 | 1.22 | 
4 | CC(C)S(=O)(=O)c1ccc(-c2ccc3cc(O)ccc3c2Oc2ccc(OCCN3CCCCC3)cc2)cc1 | 96 | 4.9 | 2.17 | 11 | 0.37 |  |  |  | < 1 | 83 | 0.73 | 
5 | CC(C)c1ccc(-c2sc3cc(O)ccc3c2Oc2ccc(OCCN3CCCCC3)cc2)cc1 | 95 | 16.2 | 0.63 | 29 | 0.16 |  |  |  | < 1 | 83 | 0.091 | 
6 | N#Cc1cccc(-c2ccc3cc(O)ccc3c2Oc2ccc(OCCN3CCCCC3)cc2)c1 | 94 | 18.5 | 0.35 | 23 | 0.37 | 529 | 360 |  | < 1 | 83 | 0.24 | 
7 | Oc1ccc(-c2ccc3cc(O)ccc3c2Oc2ccc(OCCN3CCCCC3)cc2)cc1 | 96 | 4.7 | 0.48 | 13 | 0.3 | 47 | 277 | 0.17 | < 1 | 83 | 0.32 | 
8 | CN(C)C(=O)c1ccc(-c2ccc3cc(O)ccc3c2Oc2ccc(OCCN3CCCCC3)cc2)cc1 | 95 | 6.7 | 1.16 | 25 | 0.19 |  |  |  | < 1 | 83 | 0.57 | 
9 | Oc1ccc2c(Oc3ccc(OCCN4CCCCC4)cc3)c(-c3ccc(F)cc3)ccc2c1 | 93 | 3.2 | 0.28 | 21 | 0.015 | 2690 | 151 | 17.8 | < 1 | 83 | 0.24 | 
10 | Oc1ccc2c(Oc3ccc(OCCN4CCCCC4)cc3)c(-c3ccc(F)c(F)c3)ccc2c1 | 96 | 3.9 | 0.29 | 13 | 0.058 | 3490 | 418 | 8.32 | < 1 | 83 | 0.2 | 
11 | O=S1(=O)CC=C(c2ccc3cc(O)ccc3c2Oc2ccc(OCCN3CCCCC3)cc2)CC1 | 98 | 7.2 | 2.1 | 19 | 0.25 |  |  |  | < 1 | 83 | 1.03 | 
12 | CS(=O)(=O)c1ccc(-c2sc3cc(O)ccc3c2Oc2ccc(OCCN3CCCCC3)cc2)cc1 | 97 | 22.2 | 13.6 | 24 | 0.62 |  |  |  | < 1 | 83 | 0.63 | 
13 | Oc1cccc(-c2ccc3cc(O)ccc3c2Oc2ccc(OCCN3CCCCC3)cc2)c1 | 100 | 2.1 | 0.36 | 26 | 0.13 | 57 | 211 | 0.269 | < 1 | 83 | 0.21 | 
14 | Oc1ccc2c(Oc3ccc(OCCN4CCCCC4)cc3)c(-c3cccc(F)c3)ccc2c1 | 97 | 4.8 | 0.16 | 15 | 0.23 | 730 | 137 | 5.37 | < 1 | 83 | 0.18 | 
15 | CS(=O)(=O)C1CC=C(c2ccc3cc(O)ccc3c2Oc2ccc(OCCN3CCCCC3)cc2)CC1 (centres undefined) | 99 | 8 | 2.69 | 24 | 0.26 |  |  |  | < 1 | 83 | 1.09 | 
16 | CCS(=O)(=O)c1ccc(-c2sc3cc(O)ccc3c2Oc2ccc(OCCN3CCCCC3)cc2)cc1 | 95 | 14.5 | 15.7 | 16 | 0.56 |  |  |  | < 1 | 83 |  | 
17 | O=S1(=O)CCC(c2ccc3cc(O)ccc3c2Oc2ccc(OCCN3CCCCC3)cc2)CC1 | 93 | 15.7 | 4.11 | 27 | 0.34 |  |  |  | < 1 | 83 | 1.89 | 
18 | C#CC1(O)CC[C@H]2[C@@H]3CCc4cc(O)ccc4[C@H]3CC[C@@]21C (single isomer, unassigned) [ETHINYL ESTRADIOL] |  |  |  |  |  |  |  |  |  |  |  | 3
